Experimental findings from PubChem BioAssay AID330 (DTP/NCI, 2004) are described below.

This assay relates to P388 leukemia ip, CD2F1 mice, survival T/C. The assay can be described thus: NCI In Vivo Anticancer Drug Screen. Data for tumor model P388 Leukemia (intraperitoneal) in CD2F1 (CDF1) mice. The conditions noted are these: endpoint: median survival time, higher = longer survival. In outline: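 Mice carrying the transplanted tumor received test compound or vehicle. Survival was recorded in each group, and the value is the treated-group measurement divided by that of the vehicle-treated control group.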

Setting [1] is: dose: 25.0 mg/kg/injection, schedule: Q01DX005 (ip), vehicle: saline with Tween-80.
The mark [2] stands for this setting: dose: 50.0 mg/kg/injection, schedule: Q01DX005 (ip), vehicle: saline with Tween-80.
[3] abbreviates: dose: 50.0 mg/kg/injection, schedule: Q01DX005 (ip), vehicle: Klucel (hydroxypropylcellulose) (HPC).
[4] abbreviates: dose: 100.0 mg/kg/injection, schedule: Q01DX005 (ip), vehicle: Klucel (hydroxypropylcellulose) (HPC).
[5] abbreviates: dose: 200.0 mg/kg/injection, schedule: Q01DX005 (ip), vehicle: Klucel (hydroxypropylcellulose) (HPC).
Where [6] appears, read: dose: 60.0 mg/kg/injection, schedule: Q01DX005 (ip), vehicle: saline with Tween-80.
[7] abbreviates: dose: 120.0 mg/kg/injection, schedule: Q01DX005 (ip), vehicle: saline with Tween-80.
The mark [8] stands for this setting: dose: 240.0 mg/kg/injection, schedule: Q01DX005 (ip), vehicle: saline with Tween-80.
Setting [9] is: dose: 100.0 mg/kg/injection, schedule: Q01DX001 (ip), vehicle: saline with Tween-80.
The mark [10] stands for this setting: dose: 200.0 mg/kg/injection, schedule: Q01DX001 (ip), vehicle: saline with Tween-80.
Where [11] appears, read: dose: 400.0 mg/kg/injection, schedule: Q01DX001 (ip), vehicle: saline with Tween-80.
The mark [12] stands for this setting: dose: 50.0 mg/kg/injection, schedule: Q01DX009 (ip), vehicle: Klucel (hydroxypropylcellulose) (HPC).

Structures are written as SMILES. Where “and” joins values, the source holds several entries; their conditions need not be identical. Equal entries are not always repeated. Inconclusive results and toxic doses are left out. Peptide text beside a SMILES is read from it.

Regarding `CN(C)c1ccc(-c2nn(C)c3nc(=O)n(C)c(=O)c-3[n+]2[O-])cc1`, the T/C (dose: 1.56 mg/kg/injection, schedule: Q01DX001 (ip), vehicle: saline) was 101 % of control; the T/C (dose: 3.12 mg/kg/injection, schedule: Q01DX001 (ip), vehicle: saline) was 103 % of control; the T/C (dose: 6.25 mg/kg/injection, schedule: Q01DX001 (ip), vehicle: saline) is 100 % of control and 103 % of control.

On to `Cc1n[nH]c(=O)n(/N=C/c2ccc(N(C)C)cc2)c1=O`, for which the T/C (dose: 60.0 mg/kg/injection, schedule: Q01DX005 (ip), vehicle: Klucel (hydroxypropylcellulose) (HPC)) was 98 % of control and the T/C (dose: 120.0 mg/kg/injection, schedule: Q01DX005 (ip), vehicle: Klucel (hydroxypropylcellulose) (HPC)) is 97 % of control.

Regarding `CO[Si](CCCN)(OC)OC`, the T/C was 119 % of control (dose: 50.0 mg/kg/injection, schedule: Q01DX009 (ip), vehicle: saline); 105 % of control (dose: 100.0 mg/kg/injection, schedule: Q01DX009 (ip), vehicle: saline); 110 % of control (dose: 200.0 mg/kg/injection, schedule: Q01DX009 (ip), vehicle: saline).

With `C(#CC1CO1)CCCC#CC1CO1` (stereo not given), the T/C by setting is: (dose: 12.5 mg/kg/injection, schedule: Q01DX005 (ip), vehicle: saline with Tween-80) 106 % of control; under setting [1], 110 % of control; under setting [2], 107 % of control and 124 % of control.

`CCc1nc(N)nc(N)c1-c1ccc(NCCc2ccccc2)c(N)c1`: the T/C under setting [3] is 90 % of control, the T/C under setting [4] was 96 % of control and the T/C under setting [5] was 100 % of control.

In the case of `N#Cc1c(=O)n(O)c2ccccc2[n+]1[O-]`, the T/C was 94 % of control under setting [1]; 97 % of control under setting [2]; 106 % of control (dose: 100.0 mg/kg/injection, schedule: Q01DX005 (ip), vehicle: saline with Tween-80); 102 % of control (dose: 200.0 mg/kg/injection, schedule: Q01DX005 (ip), vehicle: saline with Tween-80); 93 % of control (dose: 400.0 mg/kg/injection, schedule: Q01DX005 (ip), vehicle: saline with Tween-80).

Turning to `CCN(CC)CCOC(=O)Nc1cc(Cl)cc(Cl)c1`, the T/C under setting [6] was 100 % of control, the T/C under setting [7] is 101 % of control and the T/C under setting [8] was 100 % of control.

As to `O=C1CSC(c2ccccc2O)N1c1nc(-c2ccc(Cl)cc2)cs1` (stereo not given), the T/C under setting [9] was 100 % of control, the T/C under setting [10] is 98 % of control and the T/C under setting [11] is 87 % of control.

Take `COc1ccc2c(c1)N(CCC1CCCCN1C)c1ccccc1S2` (stereo not given): the T/C is, setting by setting: (dose: 12.5 mg/kg/injection, schedule: Q04DX003 (ip), vehicle: saline) 116 % of control; (dose: 25.0 mg/kg/injection, schedule: Q04DX003 (ip), vehicle: saline) 115 % of control; (dose: 50.0 mg/kg/injection, schedule: Q04DX003 (ip), vehicle: saline) 119 % of control.

With `CC1(C)OP2(O)(OC(C)(C)c3ccccc32)c2ccccc21`, the T/C runs as follows: under setting [12], 99 % of control; (dose: 100.0 mg/kg/injection, schedule: Q01DX009 (ip), vehicle: Klucel (hydroxypropylcellulose) (HPC)) 102 % of control; (dose: 200.0 mg/kg/injection, schedule: Q01DX009 (ip), vehicle: Klucel (hydroxypropylcellulose) (HPC)) 104 % of control.

Turning to `CSCCC(N)C(=O)NC(CC(N)=O)C(=O)O` (stereo not drawn) (H-Met-Asn-OH; configuration not given here), the T/C reads like this: (dose: 50.0 mg/kg/injection, schedule: Q01DX005 (ip), vehicle: saline) 98 % of control; (dose: 100.0 mg/kg/injection, schedule: Q01DX005 (ip), vehicle: saline) 101 % of control; (dose: 200.0 mg/kg/injection, schedule: Q01DX005 (ip), vehicle: saline) 99 % of control.

For the molecule `CCCCN(CCCC)CCCC(C(C)=O)C(=O)OCC` (stereo not given), the T/C is 102 % of control under setting [3] and 104 % of control under setting [4].

Regarding `CCOC(=O)C1=CC(C)(C)OC1=O`, the T/C is 99 % of control and 106 % of control under setting [6]; 110 % of control and 118 % of control under setting [7]; 101 % of control and 124 % of control under setting [8].

With `O=[N+]([O-])c1ccc(/C=C/C=C/c2ccc(Cl)c(S(=O)(=O)F)c2)c(Cl)c1`, the T/C is, setting by setting: (dose: 100.0 mg/kg/injection, schedule: Q01DX009 (ip), vehicle: saline sonified) 95 % of control; (dose: 200.0 mg/kg/injection, schedule: Q01DX009 (ip), vehicle: saline sonified) 95 % of control; (dose: 400.0 mg/kg/injection, schedule: Q01DX009 (ip), vehicle: saline sonified) 91 % of control.

For `CCOC(=C\C=C\C1=[N+](C)c2ccccc2C1(C)C)/C=C/C=C1/N(C)c2ccccc2C1(C)C`, the T/C reads like this: (dose: 1.56 mg/kg/injection, schedule: Q01DX009 (ip), vehicle: saline with Tween-80) 117 % of control; (dose: 3.13 mg/kg/injection, schedule: Q01DX009 (ip), vehicle: saline with Tween-80) 114 % of control.

On to `COC(=O)c1cc(-c2ccc(Cl)cc2)n2c(N)nnc2n1`, for which the T/C under setting [6] is 100 % of control, the T/C under setting [7] is 100 % of control and the T/C under setting [8] was 104 % of control.

Regarding `O=C1C=C[C@]2(C(=O)O)[C@@H]3C=C[C@@H](CC3)[C@H]12`, the T/C runs as follows: (dose: 100.0 mg/kg/injection, schedule: Q04DX003 (ip), vehicle: Klucel (hydroxypropylcellulose) (HPC)) 96 % of control; (dose: 200.0 mg/kg/injection, schedule: Q04DX003 (ip), vehicle: Klucel (hydroxypropylcellulose) (HPC)) 100 % of control; (dose: 400.0 mg/kg/injection, schedule: Q04DX003 (ip), vehicle: Klucel (hydroxypropylcellulose) (HPC)) 90 % of control.

Regarding `COc1ccc(/C=N/Nc2nnc3c4ccccc4n(C)c3n2)cc1`, the T/C was 89 % of control under setting [9], 91 % of control under setting [10] and 107 % of control under setting [11].

In the case of `COc1cc(OC)c(NC(=S)Nc2sc3c(c2C#N)CCCC3)cc1Cl`, the T/C (dose: 50.0 mg/kg/injection, schedule: Q01DX009 (ip), vehicle: gum acacia) is 110 % of control; the T/C (dose: 100.0 mg/kg/injection, schedule: Q01DX009 (ip), vehicle: gum acacia) is 103 % of control; the T/C (dose: 200.0 mg/kg/injection, schedule: Q01DX009 (ip), vehicle: gum acacia) is 102 % of control.

`CC(C)(C)OC(=O)NCC(=O)ON1C(=O)CCC1=O`: the T/C (dose: 50.0 mg/kg/injection, schedule: Q01DX009 (ip), vehicle: saline with Tween-80) is 118 % of control and the T/C (dose: 100.0 mg/kg/injection, schedule: Q01DX009 (ip), vehicle: saline with Tween-80) is 102 % of control.

Regarding `CC(N)=S=O`, the T/C runs as follows: (dose: 15.0 mg/kg/injection, schedule: Q01DX005 (ip), vehicle: saline) 112 % of control; (dose: 30.0 mg/kg/injection, schedule: Q01DX005 (ip), vehicle: saline) 103 % of control; (dose: 60.0 mg/kg/injection, schedule: Q01DX005 (ip), vehicle: saline) 106 % of control and 94 % of control.

Regarding `O=c1c2[nH]c3ccccc3sc=2c(=O)n1-c1ccc(Cl)cc1`, the T/C is, setting by setting: under setting [6], 103 % of control; under setting [7], 98 % of control; under setting [8], 94 % of control.

As to `CC(c1c[nH]c2ccccc12)N1CCCCC1` (stereo not given), the T/C is, setting by setting: (dose: 12.5 mg/kg/injection, schedule: Q01DX009 (ip), vehicle: Klucel (hydroxypropylcellulose) (HPC)) 109 % of control; (dose: 25.0 mg/kg/injection, schedule: Q01DX009 (ip), vehicle: Klucel (hydroxypropylcellulose) (HPC)) 115 % of control; under setting [12], 113 % of control.

`C=C(C)COC(=O)C1C2CC(C3OC23)C1C(=O)OCC(=C)C` (stereo not given): the T/C under setting [3] is 102 % of control, the T/C under setting [4] is 104 % of control and the T/C under setting [5] is 100 % of control.
